Measured values from patent US11001578B2, “N-((HET)arylmethyl)-heteroaryl-carboxamides compounds as plasma kallikrein inhibitors” (KALVISTA PHARMACEUTICALS LIMITED, priority 2014, dated 2021).

Tests used:
Human FXIa = Human FXIa (Homo sapiens (Human), UniProt P03951); experiment: Determination of the % inhibition for FXIa (fluorogenic substrate Z-Gly-Pro-Arg-AFC); type: biochemical; conditions: 40 μM of the test compound, 25° C.
Method: Determination of the % Inhibition for FXIa
Human FXIa (Enzyme Research Laboratories) was incubated at 25° C. with the fluorogenic substrate Z-Gly-Pro-Arg-AFC and 40 μM of the test compound. Residual enzyme activity (initial rate of reaction) was determined by measuring the change in […].

Human KLK1 = Human KLK1 (Homo sapiens (Human), UniProt P06870); experiment: Determination of the IC50 for KLK1 (fluorogenic substrate H-DVal-Leu-Arg-AFC); type: biochemical; conditions: 25° C.
Method: Determination of the IC50 for KLK1
Human KLK1 (Callbiochem) was incubated at 25° C. with the fluorogenic substrate H-DVal-Leu-Arg-AFC and various concentrations of the test compound. Residual enzyme activity (initial rate of reaction) was determined by measuring the change in […] at 410 nm and the IC50 value for the test compound was determined.

Human FXIa, sequence (P03951 388-625 limits assumed): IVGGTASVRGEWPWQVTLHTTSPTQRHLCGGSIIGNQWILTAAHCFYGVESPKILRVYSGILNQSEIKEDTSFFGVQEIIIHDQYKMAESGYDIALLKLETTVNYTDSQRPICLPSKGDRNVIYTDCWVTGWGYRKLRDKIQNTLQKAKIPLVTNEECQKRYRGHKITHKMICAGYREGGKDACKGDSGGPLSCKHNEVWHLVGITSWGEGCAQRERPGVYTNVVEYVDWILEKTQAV
Human FXIa, sequence (P03951 19-387 partner limits assumed): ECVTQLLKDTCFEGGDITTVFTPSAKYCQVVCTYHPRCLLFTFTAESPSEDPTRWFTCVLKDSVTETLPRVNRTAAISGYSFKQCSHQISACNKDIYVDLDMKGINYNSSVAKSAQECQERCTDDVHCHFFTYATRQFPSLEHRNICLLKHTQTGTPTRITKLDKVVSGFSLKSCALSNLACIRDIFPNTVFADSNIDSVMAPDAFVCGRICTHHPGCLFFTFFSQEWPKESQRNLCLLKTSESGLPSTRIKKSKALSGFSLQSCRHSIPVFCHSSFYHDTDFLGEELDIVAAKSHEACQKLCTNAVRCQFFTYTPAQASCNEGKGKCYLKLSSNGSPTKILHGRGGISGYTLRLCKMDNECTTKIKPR
Human KLK1, sequence (P06870 25-262): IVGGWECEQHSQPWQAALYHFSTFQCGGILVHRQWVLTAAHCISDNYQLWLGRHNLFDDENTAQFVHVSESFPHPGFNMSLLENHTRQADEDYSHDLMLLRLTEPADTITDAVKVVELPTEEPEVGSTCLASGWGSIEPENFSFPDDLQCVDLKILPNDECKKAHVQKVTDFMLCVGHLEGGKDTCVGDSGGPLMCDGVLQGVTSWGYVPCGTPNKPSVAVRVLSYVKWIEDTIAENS

| SMILES | % Inhibition @ 40 μM (human FXIa) (Human FXIa) [%] | IC50 (Human KLK1) [µM] |
| --- | --- | --- |
| Nc1nn(Cc2ccc(Cn3ccccc3=O)cc2)cc1C(=O)NCc1ccc(OC(F)(F)F)cc1 [Example 58, 3-amino-1-({4-[(2-oxopyridin-1-yl)methyl]phenyl}methyl)-N-{[4-(trifluoromethoxy)phenyl]methyl}pyrazole-4-carboxamide] | 0 |  |
| COc1cccc(CNC(=O)c2cn(Cc3ccc(Cn4ccccc4=O)cc3)nc2C2CC2)c1F [Example 52, 3-cyclopropyl-N-[(2-fluoro-3-methoxyphenyl)methyl]-1-({4-[(2-oxopyridin-1-yl)methyl]phenyl}methyl)pyrazole-4-carboxamide] | 1 |  |
| NC(=O)c1cccc(CNC(=O)c2cn(Cc3ccc(Cn4ccccc4=O)cc3)nc2C2CC2)c1 [Example 49, N-[(3-carbamoylphenyl)methyl]-3-cyclopropyl-1-({4-[(2-oxopyridin-1-yl)methyl]phenyl}methyl)pyrazole-4-carboxamide] | 0 |  |
| COc1cc(F)c(CNC(=O)c2cn(Cc3ccc(Cn4cc(C)cn4)cc3)nc2C(F)(F)F)c(F)c1 [Example 11, N-[(2,6-difluoro-4-methoxyphenyl)methyl]-1-({4-[(4-methylpyrazol-1-yl)methyl]phenyl}methyl)-3-(trifluoromethyl)pyrazole-4-carboxamide] |  | > 10 |
